The text below walks through data of PubChem BioAssay (NCI).

Common to all, as to assay: growth of human tumour cells (NCI), 48 h
Assay [1] has as its system NCI-H23 lung.
The subject of assay [2] is HOP-92 NSCLC.
Assay [3] concerns SK-OV-3 ovarian.
The subject of assay [4] is CCRF-CEM leukemia.
The subject of assay [5] is NCI/ADR-RES ovarian.
Assay [6] concerns MDA-MB-231 breast.
Assay [7] concerns SNB-75 CNS.
Assay [8] has as its system PC-3 prostate.
Assay [9] deals with KM12 colon.
The test system of assay [10] is SN12C renal.

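Briefly, cells in 96-well plates were exposed to five compound concentrations for 48 h, and endpoints were estimated by linear interpolation. TGI: concentration producing complete growth inhibition.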

Turning to `O=S(=O)(Oc1ccc2oc3ccccc3c2c1-c1c(OS(=O)(=O)C(F)(F)F)ccc2oc3ccccc3c12)C(F)(F)F`, the TGI in assay [1], in assay [2], in [3], in assay [4], in [5] and in [6] was over 100 µM in each case. Moreover, the TGI in assay [7], in assay [8] and in assay [9] was over 100 µM each time.

On to `Cc1nc2c(=S)[nH]ncc2[nH]1`, for which the TGI in assay [1], in assay [2], in [3], in [10], in assay [4] and in assay [5] was over 100 µM in each case. For the same compound, the TGI in assay [6], in [7], in assay [8] and in assay [9] was over 100 µM in each case.

Regarding `CN(C)CCNc1ccc(C(=O)NCCCN(C)CCCNC(=O)c2ccc(NCCN(C)C)c3c(=O)c4ccccc4[nH]c23)c2[nH]c3ccccc3c(=O)c12`, the TGI in [1] was 2.78 µM; in assay [2], 0.616 µM; in assay [3] it was 1.3 µM; in assay [10], 1.02 µM; in [4], 1.02 µM; in assay [5], over 63.8 µM. The TGI is 0.388 µM in [6], 3.44 µM in assay [8] and 0.906 µM in assay [9].

As to `COc1c2cc([N+](=O)[O-])cc1CNC(=O)CN1CCOCCOCCN(CCOCCOCC1)CC(=O)NC2`, the TGI in assay [1], in [2], in assay [3], in assay [10], in assay [4] and in [5] was over 100 µM throughout. The TGI in [6], in assay [7], in [8] and in assay [9] was over 100 µM in each case.

Turning to `CCCCNC1CCC2(SCCS2)c2[nH]c3ccccc3c21` (stereo not drawn), the TGI in assay [1] was over 100 µM; in [2], over 81.9 µM; in assay [3], over 100 µM; in [10], over 100 µM; in [4], over 59.7 µM; in assay [5] it was over 100 µM. The TGI in assay [6] is over 62.6 µM; in assay [7] it was over 100 µM; in [8], over 67.3 µM; in [9], 36.9 µM.

As for `CC[C@@]1(O)C(=O)OCc2c1cc1n(c2=O)Cc2c-1nc1ccccc1c2/C=N\NC(=O)C(N)CC(C)C` (stereo partly drawn), the TGI in [1] is 0.112 µM; in assay [2], 5.35 µM; in [10], 1.61 µM; in assay [4], 0.629 µM; in [5], 0.856 µM; in assay [6], over 100 µM. For the same compound, the figures for the TGI in assay [7] and in assay [8] were under 0.0248 µM and over 100 µM, respectively.

For the compound `CNC(=O)c1ccccc1-[s+]1c2ccccc2c(=O)n1C` (stereo not drawn), the TGI in [1], in assay [2], in [10], in assay [4], in assay [5] and in assay [6] was over 100 µM in each case. In addition, the TGI in [8] and in assay [9] was over 100 µM in each case.

Turning to `O=C1CSC2(CC(/C=C/c3ccccc3)=NN2c2cccc(S(=O)(=O)O)c2)N1c1nc2ccccc2s1` (stereo not drawn), the TGI was 56.7 µM in [1]; 77.3 µM in assay [2]; 71.2 µM in [10]; 49.5 µM in [4]; over 100 µM in assay [5]; 47.8 µM in assay [6]. Further, the TGI in assay [7] is 59.2 µM; in [8], 59.3 µM; in assay [9] it was 38.3 µM.

As to `Nc1nc2c(=O)c3ccccc3sc2s1`, the TGI was over 100 µM in assay [1]; over 100 µM in assay [2]; over 100 µM in assay [10]; over 100 µM in [4]; 90.5 µM in assay [5]; over 100 µM in [6]. The TGI in assay [7], in assay [8] and in [9] was over 100 µM throughout.

As to `Cc1ccc(C2CC(=O)CC(c3ccc(C)cc3)C23C(=O)NC(=O)NC3=O)cc1` (stereo not drawn), the TGI in [1], in assay [2], in [10], in [4], in assay [5] and in assay [6] was over 100 µM each time. Moreover, the TGI in [7], in assay [8] and in [9] was over 100 µM throughout.

For the compound `CC1=NN(C(=O)CSc2nnc(SCC(=O)N3N=C(C)CC3(O)c3ccccc3)s2)C(O)(c2ccccc2)C1` (stereo not drawn), the TGI is over 100 µM in assay [1]; over 100 µM in assay [2]; over 100 µM in assay [3]; over 100 µM in assay [10]; over 100 µM in [4]; 68.3 µM in [5]. Besides, the figures for the TGI in assay [6], in [8] and in assay [9] were over 100 µM, over 100 µM and 93.2 µM, respectively.

With `COC(=O)c1cn(CCCC(=O)O)nn1`, the TGI in assay [1], in [2], in [10], in [4], in assay [5] and in [6] was over 100 µM each time. For the same compound, the TGI in assay [7], in [8] and in [9] was over 100 µM in each case.

On to `Clc1ccc2c(SCC3CO3)c3ccccc3nc2c1` (stereo not drawn), for which the TGI in assay [1] was over 100 µM; in assay [2], 5.08 µM; in assay [3], 53.4 µM; in assay [10] it was 7.35 µM; in assay [4] it was 6.98 µM; in assay [5] it was 7.24 µM. Also, the TGI in assay [6] is 6.64 µM; in [7], 60.5 µM; in assay [8], 6.86 µM.

For the compound `CN1C/C(=C\c2cccs2)C2=NC(=S)NC(c3cccs3)C2C1` (stereo not drawn), the TGI in assay [1] was over 100 µM; in assay [2] it was over 100 µM; in assay [3], over 100 µM; in assay [10], over 100 µM; in [4], 53.5 µM; in assay [5] it was over 100 µM. Besides, the TGI in assay [6], in assay [8] and in assay [9] was over 100 µM each time.

In the case of `COC(=O)N1CC2(CO)C3CC=C(C(=O)Nc4ccccc4Br)C2C1C3Br` (stereo not drawn), the TGI in assay [1], in [2], in assay [3], in [4], in assay [5] and in assay [6] was over 50 µM throughout. For the same compound, the TGI in assay [7], in assay [8] and in [9] was over 50 µM in each case.

On to `CC1=NN(c2nc(N)nc(-c3ccccc3S(N)(=O)=O)n2)C(C)(C)C1`, for which the TGI in assay [1] was over 100 µM; in assay [2], over 100 µM; in assay [3] it was over 100 µM; in [4], over 100 µM; in assay [5], 52.5 µM; in assay [6], over 100 µM. The TGI in assay [8] and in assay [9] was over 100 µM each time.

For the compound `C1=C\SS/C=C\SS/C=C\SS/C=C\SS/1`, the TGI was over 100 µM in assay [1]; over 100 µM in assay [2]; over 100 µM in [3]; over 100 µM in [10]; 61.9 µM in assay [4]; over 100 µM in assay [5]. For the same compound, the TGI in [6], in assay [8] and in [9] was over 100 µM each time.

As to `CCOC(=O)c1ccc(N=NN(C)C(=O)C(C)N)cc1` (stereo not drawn), the TGI in assay [1], in assay [2], in assay [10], in [4], in [5] and in [6] was over 100 µM throughout. For the same compound, the TGI in assay [7], in assay [8] and in assay [9] was over 100 µM each time.

Consider `CCc1nn(CN2CCN(C)CC2)c(=S)n1/N=C\c1ccc(-c2ccc([N+](=O)[O-])cc2)o1`, for which the TGI in assay [1] was over 100 µM; in [2], over 100 µM; in assay [3], over 100 µM; in assay [10], over 100 µM; in assay [4], over 100 µM; in [5], 73.2 µM. The TGI in assay [6], in [8] and in assay [9] was over 100 µM in each case.

Regarding `CCOC(=O)CCCn1nnc(C(=O)OCC)c1C(=O)OCC`, the TGI in assay [1], in assay [2], in [10], in assay [4], in [5] and in [6] was over 100 µM throughout. The TGI in assay [7], in [8] and in assay [9] was over 100 µM each time.

Consider `O=C1c2ccccc2C(=O)N1n1c(Cc2ccccc2)n[nH]c1=O`, for which the TGI in [1], in [2], in assay [10], in assay [4], in assay [5] and in [6] was over 100 µM throughout. For the same compound, the TGI in assay [7], in [8] and in assay [9] was over 100 µM each time.

For the compound `Nc1nc(N)c2ncn(CC3CCC(CO)C3)c2n1` (stereo not drawn), the TGI in assay [2], in [3], in [10], in assay [4], in [5] and in assay [6] was over 100 µM throughout. For the same compound, the TGI in assay [7], in assay [8] and in assay [9] was over 100 µM throughout.
